# ChEMBL document CHEMBL3991601, “The target landscape of clinical kinase drugs” (Science, 2017)
# Active and inactive are the calls of the source. Cut-off read from the data, not from the text of the source, for most assays here: actives have a measured Kd and inactives only a lower limit.
# How the values were obtained:
# [1] = biological target: Ribosomal protein S6 kinase alpha-6 (Homo sapiens, UniProt Q9UK32)
# [2] = biological target: T1, Serine/threonine-protein kinase Nek3 (Homo sapiens, UniProt P51956)
# T1 sequence (P51956 whole entry): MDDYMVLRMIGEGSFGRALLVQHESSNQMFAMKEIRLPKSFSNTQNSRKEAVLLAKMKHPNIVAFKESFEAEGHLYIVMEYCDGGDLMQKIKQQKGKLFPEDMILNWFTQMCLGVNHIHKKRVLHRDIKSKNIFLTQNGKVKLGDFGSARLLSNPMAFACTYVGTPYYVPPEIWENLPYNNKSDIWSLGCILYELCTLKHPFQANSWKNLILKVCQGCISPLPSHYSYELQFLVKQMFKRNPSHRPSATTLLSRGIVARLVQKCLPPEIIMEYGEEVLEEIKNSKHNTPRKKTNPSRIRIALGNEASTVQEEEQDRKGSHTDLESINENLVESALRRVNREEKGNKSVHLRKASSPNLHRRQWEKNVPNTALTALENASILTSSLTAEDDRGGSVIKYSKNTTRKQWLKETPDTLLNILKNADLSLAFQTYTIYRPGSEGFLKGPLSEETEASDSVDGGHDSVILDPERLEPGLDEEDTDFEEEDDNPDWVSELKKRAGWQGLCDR
# [3] = biological target: T2, NUAK family SNF1-like kinase 2 (Homo sapiens, UniProt Q9H093)
# T2 sequence (Q9H093 whole entry): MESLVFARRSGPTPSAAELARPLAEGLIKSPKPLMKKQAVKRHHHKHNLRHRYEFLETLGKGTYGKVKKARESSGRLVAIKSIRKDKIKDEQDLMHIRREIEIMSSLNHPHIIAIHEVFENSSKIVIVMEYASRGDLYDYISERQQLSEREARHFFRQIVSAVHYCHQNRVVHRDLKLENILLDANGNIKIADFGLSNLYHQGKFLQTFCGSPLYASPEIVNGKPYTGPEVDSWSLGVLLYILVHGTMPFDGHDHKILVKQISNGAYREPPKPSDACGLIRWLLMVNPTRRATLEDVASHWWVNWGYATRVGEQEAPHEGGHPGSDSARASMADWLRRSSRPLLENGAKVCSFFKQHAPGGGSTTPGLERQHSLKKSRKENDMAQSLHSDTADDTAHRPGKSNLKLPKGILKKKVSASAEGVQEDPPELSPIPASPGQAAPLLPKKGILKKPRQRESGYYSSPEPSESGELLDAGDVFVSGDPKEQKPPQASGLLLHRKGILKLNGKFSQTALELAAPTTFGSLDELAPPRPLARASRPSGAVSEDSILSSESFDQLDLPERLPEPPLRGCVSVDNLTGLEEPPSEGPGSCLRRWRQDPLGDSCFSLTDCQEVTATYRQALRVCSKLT
# [4] = biological target: Tyrosine-protein kinase Fer (Homo sapiens, UniProt P16591)
# Tyrosine-protein kinase Fer, sequence (P16591 whole entry): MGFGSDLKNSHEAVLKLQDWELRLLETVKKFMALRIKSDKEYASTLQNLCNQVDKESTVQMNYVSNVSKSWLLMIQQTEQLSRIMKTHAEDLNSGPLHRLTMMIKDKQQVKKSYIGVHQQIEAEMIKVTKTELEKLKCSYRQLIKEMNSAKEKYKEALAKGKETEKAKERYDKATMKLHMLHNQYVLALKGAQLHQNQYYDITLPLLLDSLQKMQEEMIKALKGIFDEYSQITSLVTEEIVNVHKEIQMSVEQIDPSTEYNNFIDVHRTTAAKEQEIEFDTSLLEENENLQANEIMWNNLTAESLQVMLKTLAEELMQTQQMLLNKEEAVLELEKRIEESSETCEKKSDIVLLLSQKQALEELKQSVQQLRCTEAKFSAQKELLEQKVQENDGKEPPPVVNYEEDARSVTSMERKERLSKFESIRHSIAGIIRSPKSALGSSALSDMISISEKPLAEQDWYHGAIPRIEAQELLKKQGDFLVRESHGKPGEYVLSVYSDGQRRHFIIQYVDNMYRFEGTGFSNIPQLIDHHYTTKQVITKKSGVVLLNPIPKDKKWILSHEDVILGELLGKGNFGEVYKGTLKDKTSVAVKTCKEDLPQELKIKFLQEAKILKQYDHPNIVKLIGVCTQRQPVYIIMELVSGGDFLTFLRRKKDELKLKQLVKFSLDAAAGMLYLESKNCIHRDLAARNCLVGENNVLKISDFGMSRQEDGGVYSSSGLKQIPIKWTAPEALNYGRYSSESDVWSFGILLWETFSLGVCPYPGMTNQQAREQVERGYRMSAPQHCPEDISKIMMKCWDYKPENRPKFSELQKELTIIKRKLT
# [5] = biological target: T3, Mitogen-activated protein kinase kinase kinase kinase 3 (Homo sapiens, UniProt Q8IVH8)
# T3 sequence (Q8IVH8 whole entry): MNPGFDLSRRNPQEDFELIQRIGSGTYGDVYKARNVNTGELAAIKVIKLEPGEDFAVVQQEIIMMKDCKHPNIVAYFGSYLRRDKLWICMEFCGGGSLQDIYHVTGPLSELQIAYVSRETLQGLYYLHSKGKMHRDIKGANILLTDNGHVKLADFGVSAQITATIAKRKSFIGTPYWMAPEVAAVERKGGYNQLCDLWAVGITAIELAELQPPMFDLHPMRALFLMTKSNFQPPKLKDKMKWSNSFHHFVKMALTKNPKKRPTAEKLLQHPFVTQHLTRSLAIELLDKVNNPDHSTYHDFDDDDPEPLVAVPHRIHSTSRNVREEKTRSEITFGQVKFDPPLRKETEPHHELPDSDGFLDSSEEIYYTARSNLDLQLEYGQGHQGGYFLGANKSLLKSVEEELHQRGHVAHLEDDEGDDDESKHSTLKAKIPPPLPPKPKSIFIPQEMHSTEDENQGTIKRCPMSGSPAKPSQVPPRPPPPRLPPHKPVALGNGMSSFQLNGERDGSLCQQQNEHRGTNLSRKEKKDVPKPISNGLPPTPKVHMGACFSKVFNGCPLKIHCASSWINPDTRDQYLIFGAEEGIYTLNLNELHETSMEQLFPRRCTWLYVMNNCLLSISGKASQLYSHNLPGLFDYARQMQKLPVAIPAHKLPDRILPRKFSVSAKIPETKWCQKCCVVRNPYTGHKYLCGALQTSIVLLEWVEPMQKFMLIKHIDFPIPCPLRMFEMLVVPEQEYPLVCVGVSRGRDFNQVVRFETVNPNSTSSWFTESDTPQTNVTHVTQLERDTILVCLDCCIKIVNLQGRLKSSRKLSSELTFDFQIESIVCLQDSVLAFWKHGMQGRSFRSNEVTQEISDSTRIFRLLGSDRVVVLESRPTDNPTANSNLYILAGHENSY
# [6] = biological target: Guanine nucleotide-binding protein G(i) subunit alpha-2 (Homo sapiens, UniProt P04899)
# Guanine nucleotide-binding protein G(i) subunit alpha-2, sequence (P04899 whole entry): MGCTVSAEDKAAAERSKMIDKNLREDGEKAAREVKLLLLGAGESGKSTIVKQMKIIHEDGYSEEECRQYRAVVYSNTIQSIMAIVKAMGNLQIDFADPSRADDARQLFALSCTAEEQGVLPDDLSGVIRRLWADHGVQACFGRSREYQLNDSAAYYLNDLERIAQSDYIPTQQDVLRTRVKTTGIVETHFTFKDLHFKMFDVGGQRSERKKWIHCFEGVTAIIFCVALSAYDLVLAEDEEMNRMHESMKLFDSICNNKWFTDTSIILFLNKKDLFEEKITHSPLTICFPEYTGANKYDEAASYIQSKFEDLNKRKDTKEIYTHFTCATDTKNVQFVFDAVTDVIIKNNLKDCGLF
# Ephrin type-A receptor 4 = Ephrin type-A receptor 4 (Homo sapiens, UniProt P54764)
# Ephrin type-A receptor 4, sequence (P54764 whole entry): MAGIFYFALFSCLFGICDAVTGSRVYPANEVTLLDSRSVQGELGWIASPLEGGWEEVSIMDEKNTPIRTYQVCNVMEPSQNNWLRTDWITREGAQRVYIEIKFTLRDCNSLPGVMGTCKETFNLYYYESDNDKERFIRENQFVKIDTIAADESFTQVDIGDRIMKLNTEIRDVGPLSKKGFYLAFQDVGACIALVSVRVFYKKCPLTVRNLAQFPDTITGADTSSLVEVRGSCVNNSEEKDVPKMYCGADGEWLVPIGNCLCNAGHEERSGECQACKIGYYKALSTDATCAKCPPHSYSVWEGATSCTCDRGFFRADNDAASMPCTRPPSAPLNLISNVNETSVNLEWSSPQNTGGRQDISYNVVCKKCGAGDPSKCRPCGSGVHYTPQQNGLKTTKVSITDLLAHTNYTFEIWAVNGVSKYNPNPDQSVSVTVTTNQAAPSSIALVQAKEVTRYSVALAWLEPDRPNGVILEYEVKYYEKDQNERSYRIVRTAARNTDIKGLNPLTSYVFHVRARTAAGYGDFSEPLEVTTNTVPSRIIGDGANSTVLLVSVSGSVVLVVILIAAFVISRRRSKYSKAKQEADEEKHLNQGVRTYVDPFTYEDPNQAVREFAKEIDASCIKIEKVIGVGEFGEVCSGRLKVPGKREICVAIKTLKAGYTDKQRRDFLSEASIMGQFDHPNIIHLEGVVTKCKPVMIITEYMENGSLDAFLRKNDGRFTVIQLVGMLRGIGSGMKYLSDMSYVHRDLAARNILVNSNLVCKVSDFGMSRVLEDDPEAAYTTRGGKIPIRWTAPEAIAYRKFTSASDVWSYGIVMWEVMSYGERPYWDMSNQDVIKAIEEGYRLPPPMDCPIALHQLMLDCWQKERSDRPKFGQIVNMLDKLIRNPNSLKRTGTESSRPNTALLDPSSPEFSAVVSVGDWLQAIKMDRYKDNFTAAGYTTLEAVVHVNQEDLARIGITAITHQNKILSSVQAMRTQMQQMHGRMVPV
# [7] = biological target: T4, Serine/threonine-protein kinase ICK (Homo sapiens, UniProt Q9UPZ9)
# T4 sequence (Q9UPZ9 whole entry): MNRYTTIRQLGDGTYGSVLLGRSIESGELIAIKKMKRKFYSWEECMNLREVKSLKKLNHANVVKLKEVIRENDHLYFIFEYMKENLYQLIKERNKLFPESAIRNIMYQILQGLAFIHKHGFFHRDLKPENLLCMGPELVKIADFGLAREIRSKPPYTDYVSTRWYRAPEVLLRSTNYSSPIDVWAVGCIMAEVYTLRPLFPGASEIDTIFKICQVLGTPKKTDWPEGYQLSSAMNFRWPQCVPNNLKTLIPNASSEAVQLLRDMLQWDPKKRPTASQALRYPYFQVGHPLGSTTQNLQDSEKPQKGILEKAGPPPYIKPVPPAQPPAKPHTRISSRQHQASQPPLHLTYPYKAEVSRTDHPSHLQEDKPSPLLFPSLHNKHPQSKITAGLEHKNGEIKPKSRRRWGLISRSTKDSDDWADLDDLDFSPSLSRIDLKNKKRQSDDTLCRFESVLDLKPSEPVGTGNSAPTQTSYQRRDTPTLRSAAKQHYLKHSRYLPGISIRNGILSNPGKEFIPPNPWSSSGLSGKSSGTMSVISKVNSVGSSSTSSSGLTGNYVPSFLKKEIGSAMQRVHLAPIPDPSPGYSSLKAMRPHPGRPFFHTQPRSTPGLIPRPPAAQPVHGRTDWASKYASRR
# Note: in the data inactive means no Kd found up to 30 µM.
# Ribosomal protein S6 kinase alpha-6, sequence (Q9UK32 whole entry): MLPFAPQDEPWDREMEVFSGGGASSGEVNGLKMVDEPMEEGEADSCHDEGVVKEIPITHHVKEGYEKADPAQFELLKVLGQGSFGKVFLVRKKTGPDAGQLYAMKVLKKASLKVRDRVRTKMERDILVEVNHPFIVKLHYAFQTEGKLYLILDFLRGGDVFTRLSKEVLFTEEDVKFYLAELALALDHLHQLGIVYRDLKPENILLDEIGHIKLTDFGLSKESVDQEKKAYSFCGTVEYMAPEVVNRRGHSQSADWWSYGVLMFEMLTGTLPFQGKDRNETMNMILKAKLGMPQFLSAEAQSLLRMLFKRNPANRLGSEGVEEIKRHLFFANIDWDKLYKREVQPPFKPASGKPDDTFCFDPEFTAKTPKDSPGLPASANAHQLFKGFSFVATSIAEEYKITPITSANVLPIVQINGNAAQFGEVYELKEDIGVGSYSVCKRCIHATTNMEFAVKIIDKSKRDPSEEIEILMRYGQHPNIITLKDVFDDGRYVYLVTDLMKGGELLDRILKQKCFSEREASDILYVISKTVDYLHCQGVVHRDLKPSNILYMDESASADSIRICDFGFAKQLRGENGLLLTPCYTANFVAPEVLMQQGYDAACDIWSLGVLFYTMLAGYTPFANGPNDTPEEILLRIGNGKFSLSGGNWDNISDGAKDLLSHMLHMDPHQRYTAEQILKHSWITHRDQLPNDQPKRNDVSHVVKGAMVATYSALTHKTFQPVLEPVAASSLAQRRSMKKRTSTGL
Kd [1],Kd [2],Kd [3],Kd [4],Kd [5],Kd [6],Kd (Ephrin type-A receptor 4),Kd [7],SMILES
> 30 µM (inactive),> 30 µM (inactive),> 30 µM (inactive),> 30 µM (inactive),> 30 µM (inactive),> 30 µM (inactive),> 30 µM (inactive),> 30 µM (inactive),Cc1cc(C(=O)Nc2cc(Oc3ccc4nc(NC(=O)C5CC5)cn4n3)ccc2C)n(C)n1 [TAK-593]
> 30 µM (inactive),> 30 µM (inactive),> 30 µM (inactive),> 30 µM (inactive),> 30 µM (inactive),> 30 µM (inactive),> 30 µM (inactive),> 30 µM (inactive),O[C@H]1CC[C@H](Nc2ncc3nc(Nc4c(F)cc(F)cc4F)n([C@H]4CCOC4)c3n2)CC1 [TANZISERTIB]
> 30 µM (inactive),> 30 µM (inactive),> 30 µM (inactive),> 30 µM (inactive),> 30 µM (inactive),> 30 µM (inactive),> 30 µM (inactive),> 30 µM (inactive),CNC(=O)c1cccc(-c2ccc3c(N4CCOC[C@@H]4C)nc(N4CCOC[C@@H]4C)nc3n2)c1 [VISTUSERTIB]
> 30 µM (inactive),> 30 µM (inactive),> 30 µM (inactive),> 30 µM (inactive),> 30 µM (inactive),> 30 µM (inactive),> 30 µM (inactive),> 30 µM (inactive),NC(=O)c1ccc(N(C(N)=O)c2c(F)cccc2F)nc1-c1ccc(F)cc1F [VX-702]
